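How tested: cells in 96-well plates exposed to compound for 48 hours at five concentrations. Here, GI50 denotes the concentration required for 50% inhibition of growth.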 Calls of active or inactive are those of the source. No stated cut-off is given here; in the data, active = GI50 up to about 1.1 µM and inactive = higher.
What was measured:
Experiment in all cases: inhibition of tumour cell growth, NCI panel, 48 h
M19-MEL = system: M19-MEL
SF-539 = system: SF-539
DMS-273 = system: DMS-273
EKVX = system: EKVX
SNB-19 = system: SNB-19
DMS-114 = system: DMS-114
KM12 = system: KM12
NCI-H460 = system: NCI-H460
IGROV-1 = system: IGROV-1
UO-31 = system: UO-31
SW-620 = system: SW-620
K562 = system: K562
RPMI-8226 = system: RPMI-8226
OVCAR-5 = system: OVCAR-5
HCC 2998 = system: HCC 2998
TK-10 = system: TK-10
T47D = system: T47D
PC-3 = system: PC-3
BT-549 = system: BT-549
Hs-578T = system: Hs-578T

SMILES	GI50 (M19-MEL)	GI50 (SF-539)	GI50 (DMS-273)	GI50 (EKVX)	GI50 (SNB-19)	GI50 (DMS-114)	GI50 (KM12)	GI50 (NCI-H460)	GI50 (IGROV-1)	GI50 (UO-31)	GI50 (SW-620)	GI50 (K562)	GI50 (RPMI-8226)	GI50 (OVCAR-5)	GI50 (HCC 2998)	GI50 (TK-10)	GI50 (T47D)	GI50 (PC-3)	GI50 (BT-549)	GI50 (Hs-578T)
CCC(C(C)N1CC(=O)NC(=O)C1)N1CC(=O)NC(=O)C1 (configuration not stated)	41.4 µM (inactive)	> 39.7 µM (inactive)	12.3 µM (inactive)	> 19.7 µM (inactive)	> 100 µM (inactive)	7.01 µM (inactive)	> 100 µM (inactive)	0.141 µM (active)	> 100 µM (inactive)	> 37.5 µM (inactive)	17.4 µM (inactive)	9.77 µM (inactive)	97.5 µM (inactive)	> 25.1 µM (inactive)	> 61.4 µM (inactive)					
Cc1ccccc1NC(=O)CC(=O)N1N=C(N2c3ccccc3Sc3ccccc32)CC1c1ccccc1 (configuration not stated)	> 100 µM (inactive)	> 100 µM (inactive)	> 100 µM (inactive)	> 100 µM (inactive)	> 100 µM (inactive)	> 100 µM (inactive)	> 100 µM (inactive)	> 100 µM (inactive)	> 100 µM (inactive)	> 100 µM (inactive)	> 100 µM (inactive)		> 100 µM (inactive)	> 100 µM (inactive)	> 100 µM (inactive)	> 100 µM (inactive)				
Cc1cc(Cl)ccc1/N=C1/NC(=O)C(CC(=O)Nc2cccc(C)c2C)S1 (configuration not stated)	35.1 µM (inactive)	21.5 µM (inactive)	26.1 µM (inactive)	37.8 µM (inactive)	26.8 µM (inactive)	22.8 µM (inactive)	32.4 µM (inactive)	31.3 µM (inactive)	34.8 µM (inactive)	21.6 µM (inactive)	35.1 µM (inactive)	24.8 µM (inactive)	19.7 µM (inactive)	31.7 µM (inactive)	26.2 µM (inactive)	39.3 µM (inactive)				
CCCCN(CCCC)C(=O)C(=O)C(C#N)c1ccc(C)cc1 (configuration not stated)	> 100 µM (inactive)	> 100 µM (inactive)	> 100 µM (inactive)	> 100 µM (inactive)	> 100 µM (inactive)	> 100 µM (inactive)	> 100 µM (inactive)	> 100 µM (inactive)	> 100 µM (inactive)	> 100 µM (inactive)	> 100 µM (inactive)	> 100 µM (inactive)	> 100 µM (inactive)	> 100 µM (inactive)	> 100 µM (inactive)	> 100 µM (inactive)				
CCCCC1=CSC(c2ccccc2)=C(c2ccccc2)S1	38.9 µM (inactive)	> 100 µM (inactive)	26.7 µM (inactive)	> 100 µM (inactive)	43.3 µM (inactive)	> 100 µM (inactive)	42.3 µM (inactive)	53.1 µM (inactive)	> 100 µM (inactive)	> 100 µM (inactive)	69 µM (inactive)	8.83 µM (inactive)	9.23 µM (inactive)		37.6 µM (inactive)	> 100 µM (inactive)				
CCCc1c(C(=O)OCC)[nH]c(-c2ccc(-c3[nH]c(C(=O)OCC)c(CCC)c3C(=O)OCC)o2)c1C(=O)OCC	> 100 µM (inactive)	> 100 µM (inactive)	> 100 µM (inactive)	> 100 µM (inactive)	> 100 µM (inactive)	> 100 µM (inactive)	> 100 µM (inactive)	> 100 µM (inactive)	> 100 µM (inactive)	> 100 µM (inactive)	> 100 µM (inactive)	> 100 µM (inactive)	> 100 µM (inactive)	> 100 µM (inactive)	> 100 µM (inactive)	> 100 µM (inactive)				
C=CCNC1=NC(=O)C(CC(=O)Nc2cccc(Cl)c2)S1 (configuration not stated)	> 100 µM (inactive)	> 100 µM (inactive)	> 100 µM (inactive)	> 100 µM (inactive)	> 100 µM (inactive)	> 100 µM (inactive)	> 100 µM (inactive)	> 100 µM (inactive)	> 100 µM (inactive)	> 100 µM (inactive)	> 100 µM (inactive)	> 100 µM (inactive)	> 100 µM (inactive)	> 100 µM (inactive)	> 100 µM (inactive)	> 100 µM (inactive)				
COc1cc(/C=C/C(=O)Oc2ccc(NC(C)=O)cc2)ccc1C(=O)OCc1ccccc1	> 100 µM (inactive)	36.3 µM (inactive)	78 µM (inactive)	> 100 µM (inactive)	52.7 µM (inactive)	> 90.8 µM (inactive)	> 100 µM (inactive)	> 73.1 µM (inactive)	67.5 µM (inactive)	> 100 µM (inactive)	> 100 µM (inactive)	> 100 µM (inactive)	> 100 µM (inactive)	> 100 µM (inactive)	> 100 µM (inactive)	> 95.9 µM (inactive)	> 100 µM (inactive)	> 100 µM (inactive)	> 100 µM (inactive)	> 100 µM (inactive)
COc1ccc(NC(=O)CC(=O)n2nc(C)c(/N=N/c3ccccc3C(=O)O)c2C)cc1	> 100 µM (inactive)	> 100 µM (inactive)	> 100 µM (inactive)	> 100 µM (inactive)	80.7 µM (inactive)	> 100 µM (inactive)	> 100 µM (inactive)	> 100 µM (inactive)	> 100 µM (inactive)	> 100 µM (inactive)	> 100 µM (inactive)	> 100 µM (inactive)	> 100 µM (inactive)	> 100 µM (inactive)	> 100 µM (inactive)	> 100 µM (inactive)				
CC(=O)OC(C)(C)C[N+](=O)[O-]	> 100 µM (inactive)	> 100 µM (inactive)	> 100 µM (inactive)	> 100 µM (inactive)	> 100 µM (inactive)	> 100 µM (inactive)	> 100 µM (inactive)	> 100 µM (inactive)	> 100 µM (inactive)	> 100 µM (inactive)	> 100 µM (inactive)	> 100 µM (inactive)	> 100 µM (inactive)	> 100 µM (inactive)	> 100 µM (inactive)	> 100 µM (inactive)				
Cc1ccc(C2=C(c3ccccc3)C(Br)(c3ccc(C)cc3)C(c3ccccc3)=C2c2ccc(C)cc2)cc1	> 100 µM (inactive)	> 100 µM (inactive)	> 100 µM (inactive)	> 100 µM (inactive)	> 100 µM (inactive)	> 100 µM (inactive)	> 100 µM (inactive)	> 100 µM (inactive)	> 100 µM (inactive)		> 100 µM (inactive)	> 100 µM (inactive)	> 100 µM (inactive)	> 100 µM (inactive)	> 100 µM (inactive)	> 100 µM (inactive)				
[O-][n+]1ccccc1S [PYRITHIONE ZINC]	0.562 µM (active)	1.97 µM (inactive)	0.366 µM (active)	2.98 µM (inactive)	5.2 µM (inactive)	0.419 µM (active)	1.38 µM (inactive)	1.63 µM (inactive)	1.14 µM (inactive)	2.43 µM (inactive)	0.161 µM (active)	0.107 µM (active)	0.1 µM (active)	5.55 µM (inactive)	0.452 µM (active)	10.1 µM (inactive)				
